Assay results taken from PubChem BioAssay (NCI).
Several values for one entry are separate records, joined by “and”; a condition that tells them apart may be missing. Identical values can stand only once.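 96-well plates; 48 h exposure; 5 concentrations. Endpoints by linear interpolation between flanking doses. Not reached: highest tested concentration assigned. The concentration for 50% growth inhibition is given as GI50. The concentration for full growth arrest is given as TGI.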

Legend:
Test in all cases: NCI-60 cell line screen, 48 h
[1] = system: DLD-1 colon
[2] = system: M19-MEL melanoma
[3] = system: RXF-631 renal
[4] = system: XF 498 CNS
[5] = system: BT-549 breast
[6] = system: DU-145 prostate
[7] = system: NCI/ADR-RES ovarian
[8] = system: HOP-18 NSCLC
[9] = system: MDA-N

Structure (SMILES) | TGI [2] [µM] | TGI [4] [µM] | GI50 [5] [µM] | TGI [5] [µM] | GI50 [6] [µM] | TGI [6] [µM] | GI50 [7] [µM] | TGI [7] | other results
N#CC1CC2(C1)OCCS2 (stereo not drawn) |  |  |  |  |  |  |  |  | TGI [1]: > 100 µM
O=C(c1ccccc1)C1OC12C(=O)Nc1ccccc12 (stereo not drawn) | > 100 | > 100 |  |  |  |  |  |  | TGI [1]: > 100 µM; TGI [3]: > 100 µM
O=C1Nc2ccc(F)cc2/C1=C/c1ccc[nH]1 |  |  | > 18.8 | > 25 | > 25 | > 25 | > 25 | > 25 µM | 
COc1ccc(OC)c2c(C(=O)O)c(Cc3ccccc3)ccc12 | > 100 | > 100 |  |  |  |  |  |  | TGI [1]: > 100 µM; TGI [8]: > 100 µM
CC(=O)O[C@]12CCCCCC1C1(O)C(O)CCCC[C@H]12 (stereo partly drawn) | > 100 | > 100 |  |  |  |  |  |  | 
CC(CO)(CO)NCCCCn1ccc2c1C(=O)c1c(c(O)c3ccccc3c1O)C2=O |  |  | 19.9 | 51.2 | 16.1 | 30.5 | 2.36 | 6.02 µM | 
Br[C](Br)(Br)[Hg][c]1ccccc1 |  |  | 17.2 | 31.1 | 18.1 | 35 | 18.3 | 42.2 µM | GI50 [9]: 17.6 µM; TGI [9]: 38.7 µM
CC1=C(O)C(=O)C=C2C1=CC=C1[C@@]2(C)CC[C@@]2(C)[C@@H]3C[C@](C)(C(=O)O)CC[C@]3(C)CC[C@]12C |  |  |  | 0.0347 |  | 0.202 |  | 0.107 µM | TGI [9]: 0.075 µM
CCOC(=O)c1ccc(C)c(N=NN(C)C)c1 | > 100 | > 100 |  |  |  |  |  |  | TGI [1]: > 100 µM; TGI [8]: > 100 µM
COc1cccc(C#Cc2ccccc2C#CCCCCO)c1 |  |  | 3.07 | 20.2 | 4.17 | 18.9 | 5.44 | 20 µM | 
COc1cccc2c(=O)c3c(sc12)c(N1CCNCC1)nc1ccccc13 |  |  | 13.3 | 27.5 | 1.72 | 3.19 | 1.75 | 3.45 µM | 
CCCCCCCCCCCCCCCCCCOc1ccccc1CC(=O)OCC[N+]1(C)CCCC1 |  |  | 2.59 | 6.95 | 2.21 | 5.29 | 15.1 | 42.4 µM | 
O=C1CSC(/C(=N/Nc2ccccc2)c2nc3ccccc3[nH]2)=N1 | > 100 | 73.4 |  |  |  |  |  |  | TGI [1]: > 100 µM
CN(C)C(=O)[C@H](O)[C@H](Cc1ccccc1)NC(=O)c1cc2cc(Cl)ccc2[nH]1 |  |  | 22.8 | 72.1 | 33.3 | > 100 | 22.7 | > 100 µM | 
O=c1c2ccccc2c(=O)c2c1[nH]c1c(-c3ccccc3)c(-c3ccccc3)c(=O)c12 |  |  | 2.09 | 4.69 | 2.71 | 9.44 | 3.76 | 21.7 µM | 
Nc1nc(F)nc2c1ncn2C1OC(CO)C(O)C1O (stereo not drawn) |  |  |  | > 100 | 19.7 | > 100 |  | > 55.5 µM and 46.6 µM | TGI [9]: > 100 µM
O=c1c2cc(Br)cc(Br)c2nc(CCCl)n1CCO | > 100 | > 100 |  |  |  |  |  |  | TGI [1]: > 100 µM; TGI [3]: > 100 µM
COc1ccc(C(=O)COc2ccc(/C=C3\COc4ccc(OC)cc4C3=O)cc2)cc1 |  |  | 16.2 | 35.8 | 31 | > 100 | 12 | 32.3 µM | 

Structure (SMILES) | TGI [2] [µM] | TGI [4] [µM] | GI50 [5] [µM] | TGI [5] [µM] | GI50 [6] [µM] | TGI [6] [µM] | GI50 [7] [µM] | TGI [7] | other results
COc1cc(/C=C(\C#N)c2ccccc2)cc(OC)c1 | > 100 | > 100 |  |  |  |  |  |  | TGI [1]: > 100 µM
ClCC[N+]12CC[N+](CCCl)(CC1)C2 |  |  |  | > 100 |  | > 100 |  | > 100 µM | TGI [9]: > 100 µM
O=C1CC2c3ccccc3CCC2c2ccccc21 (stereo not drawn) |  |  |  |  |  | > 100 |  |  | TGI [9]: 21.4 µM
ClCc1cccc(Cn2cnc3nc(Cl)nc(Cl)c32)c1 |  |  | 0.487 | 1.75 | 0.141 | 0.271 |  |  | 
NC(=O)NCc1c(C(N)=O)ncn1Cc1ccccc1 | > 100 | > 100 |  |  |  |  |  |  | TGI [1]: > 100 µM; TGI [8]: > 100 µM
CCN(CC)c1ccc(N=Nc2ccc(-c3nc4ccc[n+](C)c4s3)cc2)cc1 | 10.6 |  |  |  |  |  |  |  | TGI [8]: 31.3 µM
COc1cc(/C=C/c2cc(/C=C/c3ccc(O)c(OC)c3)n(C(=O)Nc3ccc(C)cc3C)n2)ccc1O |  |  | 0.693 | 16.8 | 0.387 | 1.5 | 0.335 | 2.66 µM | 
Cc1ncc(CCCN(C)C)cc1Nc1ncc2c(n1)-c1ccc(C(F)(F)F)cc1NC(=S)C2 |  |  | 0.768 | 21.8 |  |  | 0.172 | > 67.7 µM | 
CCNC(=O)Nc1cccc(NC(=O)NCC)n1 |  |  |  | > 100 |  | > 100 |  |  | TGI [9]: > 100 µM
CCOc1cc(C(C)(C)C)ccc1C1=N[C@@](C)(c2ccc(Cl)cc2)[C@@](C)(c2ccc(Cl)cc2)N1C(=O)N1CCN(CCCS(C)(=O)=O)CC1 |  |  | 2.76 | 15.1 | 11 | 25.6 | 4.97 | 18.9 µM | 
Cc1[nH]c2ccccc2c(=O)c1CC=C(Cl)Cl |  |  | 47 | > 100 | 88.2 | > 100 | 44.2 | > 100 µM | 
O=C(O)C1C(Br)(c2ccccc2)C1(Br)c1ccccc1 (stereo not drawn) |  |  |  | 49.5 |  | > 100 |  | > 100 µM | 
Clc1ccc(C=Nc2ccc3c(c2)Cc2ccccc2-3)c(Cl)c1 |  |  |  | > 100 |  | > 100 |  | > 100 µM | TGI [9]: > 100 µM
O=c1cccc(C#CC#CC2=CCCCC2)o1 |  |  | 2.57 |  | 1.96 | 4.4 | 6.99 | 20.4 µM | 
CCCCCCCCCCCC(=O)OCC1OC(OC)C(NC(=O)N(CCCl)N=O)C(O)C1O (stereo not drawn) | > 100 | 27.6 |  |  |  |  |  |  | TGI [1]: 52.3 µM; TGI [8]: > 100 µM
OCc1ccc(C2CC(c3ccco3)=NN2c2ccccc2)o1 (stereo not drawn) | > 100 | > 100 |  |  |  |  |  |  | 
O=C(Nc1c(Cl)cc([N+](=O)[O-])cc1Cl)C(=O)C(C1OC(=O)c2ccccc21)[N+](=O)[O-] (stereo not drawn) | > 100 | > 100 |  |  |  |  |  |  | TGI [1]: > 100 µM; TGI [3]: > 100 µM
